Assay: Hydrolysis study of the silane by 1H NMR in D2O
Type: physicochemical
Experimental: Hydrolysis of the antimicrobial silanes to activate their surface bonding, an essential step in the coating process, were examined by ^1H NMR in D2O. In a typical experiment, approximately 10 mg of the trimethoxy-hydantoin containing silane was added to D2O and the first was acquired within 2 minutes of the addition. The evolution of methanol with time was measured by acquisition of subsequent incremental spectra on the same sample. Due to the limited solubility of these compounds in water, the amount of methanol hydrolysis product detected, in relation to an internal standard (residual H2O in D2O) was used.
Hydrolysis of the modified alkyloxysilanes is important for their reactivity and adhesion to surfaces. Knowing the rate of hydrolysis allows control over the mixing time and catalyst/acid content required before a coating will optimally bind to a substrate. To better understand the mechanisms of hydrolysis, a simple method of placing the silane in a solvent, such as D2O (deuterated water), and look for a characteristic methanol peak in NMR analysis, which will occur when the methanol is cleaved off by the hydrolysis from the D2O. […] After 2 minutes (the fastest the sample could be analyzed on NMR after mixing), a sharp, distinct methanol peak appears at 3.34 ppm (FIG. 4).

With `CO[Si](CCCn1cc(CN2C(=O)NC(C)(C)C2=O)nn1)(OC)OC` [the silane] the “solubility in D2O” value (approximately 10 mg in D2O) was “not completely soluble”, the “integration value of methanol peak (3.34 ppm) compared with D2O set as 1” value (in D2O, after 2 minutes) was 0.24 and the “time to plateau of methanol peak integration” value (in D2O, spectra recorded every 2 minutes) was 10 min. The “time to nearly complete hydrolysis” value (in D2O, uncatalysed, methanol release by 1H NMR) was “less than 2 minutes”.

Source: US20170273307A1, “SILANE-BASED ANTIMICROBIAL COATINGS AND METHODS OF MAKING AND USING THE SAME” (Trent University, priority 2016, published 2017)
